The values that follow come from patent US8455214B2, “Methods for determining chemotherapeutic agents targeting alpha-glucan pathways and uses thereof” (priority 2009, dated 2013).

The structures appear in SMILES notation.

The subject of this test is Mtb ΔRv3032 mutant. Format: cell-based.

`OCC1=C[C@@H](N[C@H]2C[C@H](CO)[C@@H](O[C@H]3O[C@@H](CO)[C@H](O)[C@@H](O)[C@@H]3O)[C@H](O)[C@H]2O)[C@H](O)[C@@H](O)[C@@H]1O` [VA, Validamycin A]: under “over 7 days, cultures inoculated at 5×10^6 CFU/ml”, the “killing (reduction of viability, CFU)” value came out at 3 log. For the same compound, the “effect of over-expression of the putative target TreS” value (ΔRv3032 mutant with TreS from an integrative single-copy plasmid) was “marked resistance”.
